In publication PMC4707132 (Journal of medicinal chemistry, 2015):

Key:
Mcl-1 [1] = target: T1, Mcl-1 (Homo sapiens, UniProt Q07820); assay: bio-layer interferometry; format: binding; settings: label-free BLI
Mcl-1 [2] = target: T1, Mcl-1; assay: surface plasmon resonance; format: binding
Mcl-1 [3] = target: T1, Mcl-1; assay: HSQC chemical shift mapping; format: binding
Mcl-1 [4] = target: T1, Mcl-1; assay: fluorescence polarization competition assay; format: binding
in vitro cellular assay = format: cell-based

T1 sequence (Q07820 whole entry): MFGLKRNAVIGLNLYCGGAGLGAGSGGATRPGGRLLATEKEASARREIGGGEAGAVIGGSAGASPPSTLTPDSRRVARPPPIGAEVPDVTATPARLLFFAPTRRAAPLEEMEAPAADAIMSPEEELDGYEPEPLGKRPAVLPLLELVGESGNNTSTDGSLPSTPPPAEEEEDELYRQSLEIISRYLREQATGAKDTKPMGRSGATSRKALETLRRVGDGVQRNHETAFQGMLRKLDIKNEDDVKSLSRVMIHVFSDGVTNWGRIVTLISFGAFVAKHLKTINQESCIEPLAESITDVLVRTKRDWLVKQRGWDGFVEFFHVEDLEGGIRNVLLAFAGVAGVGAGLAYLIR

With `COc1cc(O)c(C(=O)/C=C/c2ccc(O)c(OC)c2)c(OC)c1` [Compound M0, 2’,4-dihydroxy-3,4’,6’-trimethoxychalcone] the “direct binding to Mcl-1” value (Mcl-1 [1]) was “confirmed the activity”, the SPR response (Mcl-1 [2]) was “did not exhibit super-stoichiometric behavior” and the HSQC spectrum (Mcl-1 [3]) was “small number of distinct chemical shift differences”.
In the case of `COc1ccc(C(=O)/C=C/c2cc(F)c(O)c(Cl)c2)cc1` [Compound D3], the “activity relative to D1” value (Mcl-1 [4]) is reported as “reduced activity” and the “potency relative to M0” value (Mcl-1 [4]) is reported as “potency exceeding that of M0”.
For `C[C@@]12CC[C@@H]3[C@H](CCC4=CC(=O)CC[C@H]43)[C@H]1CC[C@H]2OC1(O)C(=O)c2ccccc2C1=O` [Compound M5], the “direct binding to Mcl-1” value (Mcl-1 [1]) was “confirmed the activity”.
In the case of `COc1ccc(C(=O)/C=C/c2cc(Cl)c(O)c(OC)c2)cc1` [Compound D4], the “potency relative to M0” value (Mcl-1 [4]) is reported as “potency exceeding that of M0”.
With `COc1ccc(C(=O)/C=C/c2cc(F)c(O)c(Cl)c2)c(OC)c1OC` [Compound D2] the “potency of Mcl-1 inhibition relative to M0” value (Mcl-1 [4]) was “about 7 fold” and the “biological effect in cells” value (in vitro cellular assay) was “does not exert the desired biological effect”.
With `Cc1c(/C=N/N2C=Nc3c([nH]c4ccccc34)C2)c(=O)oc2c3c4c(cc12)CCCN4CCC3` [Compound M1] the Ki (Mcl-1 [4]) was 1200 nM and the “direct binding to Mcl-1” value (Mcl-1 [1]) was “confirmed the activity”.
In the case of `COc1cc(C(=O)/C=C/c2ccc([N+](=O)[O-])cc2)c(O)c(OC)c1OC` [Compound D14], the “potency relative to M0” value (Mcl-1 [4]) is reported as “less potent than M0”.
For `COc1cc(/C=C/C(=O)c2ccc(OC)c(OC)c2OC)cc(Cl)c1O` [Compound D1], the “potency of Mcl-1 inhibition relative to M0” value (Mcl-1 [4]) was “about 7 fold”.
In the case of `COc1ccc(C(=O)/C=C/c2ccc(O)c(F)c2)c(OC)c1OC` [Compound D5], the “activity relative to D1” value (Mcl-1 [4]) is reported as “reduced activity” and the “potency relative to M0” value (Mcl-1 [4]) is reported as “very similar inhibition constant as M0”.
In the case of `c1cc2c(cc1[C@H]1OC[C@H]3[C@H]1CO[C@H]3c1ccc3c(c1)OCO3)OCO2` [Compound M7], the “direct binding to Mcl-1” value (Mcl-1 [1]) is reported as “confirmed the activity”.
For `COc1cc(C(=O)/C=C/c2ccc(C(F)(F)F)cc2)c(O)c(OC)c1OC` [Compound D13], the “potency relative to M0” value (Mcl-1 [4]) was “less potent than M0”.
For `COc1ccc(/C=C/C(=O)c2cc(OC)c(OC)c(OC)c2O)cc1` [Compound D12], the “potency relative to M0” value (Mcl-1 [4]) was “less potent than M0”.
With `COc1cc(C(=O)/C=C/c2ccc(O)cc2)c(O)c(OC)c1OC` [Compound D7] the “potency relative to M0” value (Mcl-1 [4]) was “less potent than M0”.
